Assay results reported in patent US4362736A, “Guanidinothiazole compounds, and medical compositions containing them” (Yamanouchi Pharmaceutical Co., Ltd., priority 1979, dated 1982).
Where a name gives a salt, the structure may show the parent alone.

What was measured:
Acute toxicity in mice = details: mouse, in vivo, iv, 7 days observation, up and down method; read-out: (C) LD50 in mice
Method: Drugs were injected intravenously in male ICR mice weighing about 35 g at a rate of 0.1 ml/10 g/10 sec and the animals were kept under observation for 7 days. LD50 values were determined by the up and down method using 10 animals. The data are shown in Table I, under column entitled (C).

Gastric acid secretion [1] = experiment: Gastric acid secretion in anesthetized dogs (histamine-induced); assay type: in vivo, Mongrel dogs; details: Canis lupus familiaris, iv, histamine infusion 160 μg/Kg-hr, dose producing 50% inhibition of acid output
Method: Mongrel dogs weighing 8 to 15 Kg were deprived of food for 24 hrs. and anesthetized intravenously with pentobarbital (30 mg/Kg). […] The gastric juice was collected from the gastric cannula by gravity drainage every 15 min. Test compounds were given intravenously after gastric secretion induced by a continuous intravenous infusion of histamine (160 μg/Kg-hr) reached a steady state.

Gastric acid secretion [2] = experiment: Gastric acid secretion in pylorus-ligated rats; assay type: in vivo, Male Wister rats; details: Rattus norvegicus, intraduodenal, 4 hrs., probit method, read-out: (B) Pylorus-ligated rats ED50
Method: Male Wister rats weighing about 200 g were deprived of food for 24 hrs. but allowed free access to water prior to the experiments in individual cages. […] Test compounds were intraduodenally given immediately after the ligation of pylorus. The animals were sacrificed 4 hrs. after drug administration and gastric contents were collected. […] The percent inhibition of gastric secretion by each dose of drugs was calculated from the acid outputs of control and of treated groups. ED50 values were determined by the probit method.

H2 -receptor = details: Ash and Schild; Black et al.; cited from earlier work

Compound	LD50 at 168 h (Acute toxicity in mice)	ED50 (Gastric acid secretion [1])	ED50 (Gastric acid secretion [2])	inhibition of histamine effects on gastric acid secretion and heart rate in isolated guinea pig atrium (H2 -receptor)
N#CNC(=N)CCSCc1csc(NC(=N)N)n1 [Example 3, N-cyano-3-[(2-guanidinothiazol-4-yl)methylthio]propionamidine]	147 mg/kg	0.0183 ± 0.0007 mg/kg	13.8 mg/kg	
NC(=O)N=C(N)CCSCc1csc(N=C(N)N)n1 [Example 9, N-carbamoyl-3-[(2-guanidinothiazol-4-yl)methylthio]propionamidine.di-hydrochloride]	97.8 mg/kg	0.0064 ± 0.0006 mg/kg	12.7 mg/kg	
COc1ccc(CN(CCN(C)C)c2ccccn2)cc1 [mepyramine]				not inhibited
C/N=C(\S)NCCSCc1[nH]cnc1C [metiamide]				antagonized
